Source: publication PMC9608663, “Anti-Alzheimer and Antioxidant Effects of Nelumbo nucifera L. Alkaloids, Nuciferine and Norcoclaurine in Alloxan-Induced Diabetic Albino Rats” (Pharmaceuticals, 2022)
Values joined by “and” are separate entries in the source; they are usually repeats but may differ in a detail not shown here. Equal entries are not always repeated.

Key:
[1] = tested on: acetylcholinesterase (AChE); format: in vivo; conditions: blood of diabetic rats, 10 mg/kg, 15 days; table title: AChE activity, µmol AcSCh/h/mg of protein
Protocol: (§1) The rats were divided into seven groups (six rats in each group). Normal and diabetic control groups I and II, standard glibenclamide (10 mg/kg) group III, N. nucifera crude (100–200 mg/kg) groups IV and V and nuciferine and norcoclaurine (10 mg/kg) group VI and VII. Rats were anesthetized after 15 days and their organ sections were collected for different activities. Blood was collected from each rat and centrifuged at 4000 rpm for 10 min for antioxidant enzyme activities. The brain was homogenized in 100 mM Tris buffer (Sigma, Hamburg, Germany) (pH 8.0).
(§2) In the brain (hippocampus, cerebellum, hypothalamus, striatum and cerebral cortex) and in the blood, AChE activity was measured using calorimetric method with slight modification. The sample of 0.1 mL brain homogenate as well as blood serum (containing 100 mM potassium phosphate buffer (pH 7.5), 1 mM DTNB and 0.8 mM […] (Sigma, Hamburg, Germany) were tested as AChE enzyme. The increase in enzyme activity was measured at 412 nm after the formation of the yellow-colored anion of 4, 4-ditheo-bis-nitrobenzoic acid and experiments were performed in triplicates.

[2] = tested on: catalase (CAT); assay: Catalase assay (CAT) in blood of diabetic rats; format: in vivo, albino rats (Sprague–Dawley); conditions: 10 mg/kg, 15 days
Protocol: as §1, with “8.0). Protein variation for several brain structures was measured followed by protein determination of striatum (0.3 mg/mL), hippocampus (0.6.0 mg/mL), cerebellum (0.7 mg/mL) and hypothalamus (0.4 mg/mL and cerebral cortex (0.8.0 mg/mL)).” for “8.0).”
Catalase activity was determined in blood samples by modified method of Chance and Maehly. The assay mixture comprised 0.1 mL blood serum, 2.5 mL phosphate buffer (pH 5) and 0.4 mL H2O2 while the absorbance was measured at 240 nm.

[3] = tested on: superoxide dismutase (SOD); assay: Superoxide dismutase assay (SOD) in blood of diabetic rats; format: in vivo, albino rats (Sprague–Dawley); conditions: 10 mg/kg, 15 days
Protocol: as §1
Superoxide dismutase activity was determined by an assay mixture containing 0.3 mL blood sample, 1.2 mL sodium pyrophosphate, 0.1 mL phenazine methosulphate and 0.2 mL NADH. The reaction was stopped within a minute by adding 1 mL of glacial acetic acid and the concentration of product was monitored at 560 nm.

[4] = Body weight of alloxan-induced diabetic rats; format: in vivo, albino rats (Sprague–Dawley); conditions: 10 mg/kg b.w./day
Protocol: (§3) Forty-two (42) fully matured albino rats (200–250 g b.w.) of Sprague–Dawley types were purchased from National Institute of Health, Islamabad, Pakistan and kept under normal conditions for 15 days with 12-h dark/light rotation.
(§4) Alloxan monohydrate injection (100 mg/kg) was applied to experimental rats to induce diabetic conditions followed by giving 5% glucose water for 28 h in order to decrease the death probability in alloxan-induced rates from hyperglycemic shock. Over 300 mg/dL (3 mg/mL) blood glucose level (fasting blood plasma) was considered diabetic and a selective parameter for further study.
as §1

[5] = tested on: alloxan-induced diabetic rats; assay: Blood glucose level in alloxan-induced diabetic rats; format: in vivo, albino rats (Sprague–Dawley); conditions: 10 mg/kg b.w./day
Protocol: as §3, §4, §1

[6] = target: T1, acetylcholinesterase (AChE) (Rattus norvegicus, UniProt P37136); assay: AChE activity in brain regions of diabetic rats; format: in vivo; conditions: 10 mg/kg, 15 days; for AChE activity, Cerebellum: cerebellum homogenate; for AChE activity, Cerebral Cortex: cerebral cortex homogenate; for AChE activity, Hippocampus: hippocampus homogenate; for AChE activity, Hypothalamus: hypothalamus homogenate; for AChE activity, Striatum: striatum homogenate
T1 construct: from tissue; host or cells: rat brain homogenate (cerebral cortex, cerebellum, hypothalamus, striatum, hippocampus)
T1 sequence (P37136 32-614): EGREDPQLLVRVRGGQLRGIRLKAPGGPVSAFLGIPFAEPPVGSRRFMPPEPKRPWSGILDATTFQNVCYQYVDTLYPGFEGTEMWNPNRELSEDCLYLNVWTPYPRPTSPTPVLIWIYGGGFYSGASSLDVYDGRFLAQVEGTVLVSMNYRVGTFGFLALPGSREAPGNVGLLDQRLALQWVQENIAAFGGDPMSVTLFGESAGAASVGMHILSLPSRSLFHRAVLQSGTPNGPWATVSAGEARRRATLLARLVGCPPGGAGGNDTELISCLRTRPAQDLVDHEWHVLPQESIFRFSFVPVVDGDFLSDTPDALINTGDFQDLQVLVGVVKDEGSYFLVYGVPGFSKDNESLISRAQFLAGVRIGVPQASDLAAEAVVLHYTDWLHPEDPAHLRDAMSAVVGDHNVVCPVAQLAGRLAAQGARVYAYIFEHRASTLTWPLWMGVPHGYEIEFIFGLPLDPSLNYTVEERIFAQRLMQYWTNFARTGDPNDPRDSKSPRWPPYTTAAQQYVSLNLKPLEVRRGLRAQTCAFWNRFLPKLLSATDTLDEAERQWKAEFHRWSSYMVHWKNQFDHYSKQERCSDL
Protocol: as §1, §2

[7] = tested on: glutathione peroxidase (GPx); assay: Glutathione peroxidase assay (GSH-Px) in blood of diabetic rats; format: in vivo, albino rats (Sprague–Dawley); conditions: 10 mg/kg, 15 days
Protocol: as §1
Glutathione peroxidase assay was carried out by reaction mixtures of 0.1 mL blood serum with 1.49 mL phosphate buffer (pH 7.4), 0.1 mL EDTA, 0.1 mL sodium azide, 0.1 mL NADPH, 0.05 mL GSH and 0.01 mL H2O2. The intensity of color loss of NADPH was measured at 340 nm.

[8] = tested on: reduced glutathione (GSH); assay: Reduced glutathione assay (GSH) in blood of diabetic rats; format: in vivo, albino rats (Sprague–Dawley); conditions: 10 mg/kg, 15 days
Protocol: as §1
GSH assay was carried out by mixing the blood serum with substrate DTNB by the modified method of Biessels.

[9] = tested on: lipid peroxidation (TBARS); assay: Lipid peroxidation assay (TBARS) in blood of diabetic rats; format: in vivo, albino rats (Sprague–Dawley); conditions: 10 mg/kg, 15 days
Protocol: as §1
The lipid peroxidation activity in the blood sample was determined by slight modification in Sohal’s method. The reaction mixtures containing homogenate sample (0.2 mL) in 0.1 M phosphate buffer pH 7.4 (0.58 mL), ferric chloride (0.02 mL) and ascorbic acid (0.2 mL). The reaction mixture was incubated at […] for 1 h and stopped the reaction by adding 10% trichloro-acetic acid. The reaction mixture was continuously boiled, shaken for 20 min in a water bath and centrifuged for 10 min. The formation of TBARS was monitored at wavelength of 535 nm.

SMILES	AChE activity [1] [%]	CAT [2] [E/min/mg Protein]	SOD [3] [SOD/mg Protein]	Variations in Body Weight ([4]; day 0) [g]	Variations in Body Weight ([4]; day 5) [g]	Variations in Body Weight ([4]; day 10) [g]	Blood Glucose Level ([5]; day 0) [mg/mL]	Blood Glucose Level ([5]; day 5) [mg/mL]	Blood Glucose Level ([5]; day 10) [mg/mL]	Blood Glucose Level ([5]; day 15, 10 mg/kg/day) [mg/mL]	AChE activity, Cerebellum [6]	AChE activity, Cerebral Cortex [6]	AChE activity, Hippocampus [6]	AChE activity, Hypothalamus [6]	AChE activity, Striatum [6]	GPx [7] [nmol NADPH/min/mg Protein]	GSH [8] [GSH/mg Protein]	TBARS [9] [nmol MDA/mg Protein]	Variations in Body Weight ([4]; day 15, 10 mg/kg/day)	also measured
COc1ccc(Cl)cc1C(=O)NCCc1ccc(S(=O)(=O)NC(=O)NC2CCCCC2)cc1 [glibenclamide, reference compound]	45 ± 2.01	6.45 ± 3.9	5.91 ± 0.3	180.11 ± 1.90	169.54 ± 2.41	171.23 ± 2.07	2.00 ± 1.85	1.54 ± 1.68	1.37 ± 1.20	0.94 ± 1.20	50 ± 1.20 µmol AcSCh/h/mg of protein	55 ± 2.06 µmol AcSCh/h/mg of protein	43 ± 1.10 µmol AcSCh/h/mg of protein	50 ± 2.15 µmol AcSCh/h/mg of protein	46 ± 1.59 µmol AcSCh/h/mg of protein	7.80 ± 1.6	89.52 ± 4.74	1.55 ± 0.8		Variations in Body Weight ([4]; day 15): 179.50 ± 1.40 g; Blood Glucose Level ([5]; day 15, listed as glibencamide, 10 mg/kg/day): 0.94 ± 1.20 mg/mL
Oc1ccc(CC2NCCc3cc(O)c(O)cc32)cc1 (stereo not shown) [norcoclaurine]	55 ± 1.23	5.1 ± 0.3	6.2 ± 0.7	178.22 ± 7.61	159.85 ± 1.34	169.11 ± 3.01	2.10 ± 4.67	1.70 ± 3.25	1.58 ± 1.43		57 ± 1.40 µmol AcSCh/h/mg of protein	60 ± 0.80 µmol AcSCh/h/mg of protein	48 ± 0.20 µmol AcSCh/h/mg of protein	60 ± 4.30 µmol AcSCh/h/mg of protein	56 ± 0.90 µmol AcSCh/h/mg of protein	6.70 ± 0.89	76.68 ± 0.4	1.98 ± 0.9	178.91 ± 1.32 g	Blood Glucose Level ([5]; day 15): 1.08 ± 3.15 mg/mL
COc1cc2c3c(c1OC)-c1ccccc1C[C@H]3N(C)CC2 [nuciferine]	42 ± 7.43	6.16 ± 0.7	7.1 ± 0.2	177.43 ± 4.19	161.97 ± 2.21	173.22 ± 2.67	2.05 ± 3.85	1.64 ± 2.51	1.42 ± 1.23	1.00 ± 1.45	53 ± 1.70 µmol AcSCh/h/mg of protein	56 ± 1.41 µmol AcSCh/h/mg of protein	41 ± 1.10 µmol AcSCh/h/mg of protein	55 ± 3.20 µmol AcSCh/h/mg of protein	50 ± 1.90 µmol AcSCh/h/mg of protein	7.98 ± 0.9	86.96 ± 0.7	1.60 ± 0.8	182.33 ± 3.05 g and 177.33 ± 3.05 g	
